This note sets out measurements from patent publication US10494346B2, “Substituted pyrimidine-4-carboxylic acids having anticancer activity” (KOREA INSTITUTE OF SCIENCE AND TECHNOLOGY, priority 2016, dated 2019).

Assay [1] relates to MDA-MB-231 breast cancer cell line. The assay is described as follows: Inhibitory activity on cancer cell proliferation, MDA-MB-231 (CellTiter-Glo, 72 hours). The class given is cell-based. As to conditions: Homo sapiens; MDA-MB-231, 72 hours. How it is done:
(§1) The following test was conducted to identify whether the compound of the present invention has inhibitory activity on cancer cell proliferation.
(§2) The cancer cells herein used were lung cancer cell lines (NCI-H1299, A549) and breast cancer cell lines (MDA-MB-231).
(§3) Specifically, the NCI-H1299 cells were large cell lung carcinoma cell lines derived from human lung cancer tissues, and the MDA-MB231 cells were cell lines derived from human breast cancer tissues and obtained from the Korean cell line bank (KNCC, Seoul university), which were used for tests after passage culture. The NCI-H1299 and MDA-MB231 cell lines were cultured in a RPMI1640 medium supplemented with 10% FBS (fetal bovine serum), and were washed with buffered saline (PBS, pH 7.4), when the cells were proliferated on a plate at an affluence of 70 to 80%, and isolated into single cells using a 0.05% trypsin-EDTA (welgene) solution, and then passage-cultured at 1×10e6 cells/mL which were used for the test. 100 μL of NCI-H1299 and 100 μL of MDA-MB231 were seeded on a 96-well plate at 2×10e4 cells/mL, and 5×10e4 cells/mL, respectively, stabilized in the presence of CO2 for 12 hours or longer, and then treated at different concentrations with the subject compound. After 72 hours, absorbance was measured using a CellTiter-Glo® Luminescent Cell Viability Assay (Promega) and an Envision 2103 multilabel reader (PerkinElmer). At this time, cells treated only with dimethylsulfoxide (DMSO) were used as the control group and relative viability (%) was calculated, based on 100% of the control group. GI50 was obtained using Graph PRISM 6 software.

In assay [2] the test system is A549 lung cancer cell line. Description: Inhibitory activity on cancer cell proliferation, A549. Type of assay: cell-based. Particulars: Homo sapiens. How it is done: as §1, §2
as §3, with “100 μL of NCI-H1299 and 100 μL of MDA-MB231 were seeded on a 96-well plate at 2×10e4 cells/mL, and 5×10e4 cells/mL, respectively, stabilized in the presence of CO2 for 12 hours or longer, and then treated at different concentrations with the subject compound.” left out, “GI50 was obtained using Graph PRISM 6 software.” left out

Another assay concerns NCI-H1299 cells. Description: Inhibitory activity on cancer cell proliferation, NCI-H1299 (CellTiter-Glo, 72 hours). Type of assay: cell-based. As to conditions: Homo sapiens; NCI-H1299, 72 hours. How it is done:
as §1, §2
as §3, with “100 μL of NCI-H1299 and 100 μL of MDA-MB231 were seeded on a 96-well plate at 2×10e4 cells/mL, and 5×10e4 cells/mL, respectively, stabilized in the presence of CO2 for 12 hours or longer, and then treated at different concentrations with the subject compound.” left out, “GI50 was obtained using Graph PRISM 6 software.” left out

Assay [3] deals with KDM5A-overexpressed breast cancer cells, MCF7. Description: Growth inhibitory activity on KDM5A-overexpressed cell lines (MCF7), single concentration. Type of assay: cell-based. As to conditions: Homo sapiens; MCF7, single concentration 10 μM; read-out: Growth inhibitory activity at 10 μM (inhibition proportion %). As to the method:
The compound of the present invention was treated at a single concentration with KDM5A-overexpressed breast cancer cells, MCF7, and growth inhibitory activity was measured as an inhibition proportion (%).

Assay [4] has as its target KDM5A (lysine demethylase 5A) (Homo sapiens, UniProt P29375). The assay is described as follows: Inhibitory activity against histone demethylase (in vitro IC50). The class given is biochemical. As to the method:
Inhibitory activity against histone demethylase of the compound of the present invention was evaluated.

The structures appear in SMILES notation.

Chain of KDM5A (lysine demethylase 5A) (P29375 whole entry, species assumed): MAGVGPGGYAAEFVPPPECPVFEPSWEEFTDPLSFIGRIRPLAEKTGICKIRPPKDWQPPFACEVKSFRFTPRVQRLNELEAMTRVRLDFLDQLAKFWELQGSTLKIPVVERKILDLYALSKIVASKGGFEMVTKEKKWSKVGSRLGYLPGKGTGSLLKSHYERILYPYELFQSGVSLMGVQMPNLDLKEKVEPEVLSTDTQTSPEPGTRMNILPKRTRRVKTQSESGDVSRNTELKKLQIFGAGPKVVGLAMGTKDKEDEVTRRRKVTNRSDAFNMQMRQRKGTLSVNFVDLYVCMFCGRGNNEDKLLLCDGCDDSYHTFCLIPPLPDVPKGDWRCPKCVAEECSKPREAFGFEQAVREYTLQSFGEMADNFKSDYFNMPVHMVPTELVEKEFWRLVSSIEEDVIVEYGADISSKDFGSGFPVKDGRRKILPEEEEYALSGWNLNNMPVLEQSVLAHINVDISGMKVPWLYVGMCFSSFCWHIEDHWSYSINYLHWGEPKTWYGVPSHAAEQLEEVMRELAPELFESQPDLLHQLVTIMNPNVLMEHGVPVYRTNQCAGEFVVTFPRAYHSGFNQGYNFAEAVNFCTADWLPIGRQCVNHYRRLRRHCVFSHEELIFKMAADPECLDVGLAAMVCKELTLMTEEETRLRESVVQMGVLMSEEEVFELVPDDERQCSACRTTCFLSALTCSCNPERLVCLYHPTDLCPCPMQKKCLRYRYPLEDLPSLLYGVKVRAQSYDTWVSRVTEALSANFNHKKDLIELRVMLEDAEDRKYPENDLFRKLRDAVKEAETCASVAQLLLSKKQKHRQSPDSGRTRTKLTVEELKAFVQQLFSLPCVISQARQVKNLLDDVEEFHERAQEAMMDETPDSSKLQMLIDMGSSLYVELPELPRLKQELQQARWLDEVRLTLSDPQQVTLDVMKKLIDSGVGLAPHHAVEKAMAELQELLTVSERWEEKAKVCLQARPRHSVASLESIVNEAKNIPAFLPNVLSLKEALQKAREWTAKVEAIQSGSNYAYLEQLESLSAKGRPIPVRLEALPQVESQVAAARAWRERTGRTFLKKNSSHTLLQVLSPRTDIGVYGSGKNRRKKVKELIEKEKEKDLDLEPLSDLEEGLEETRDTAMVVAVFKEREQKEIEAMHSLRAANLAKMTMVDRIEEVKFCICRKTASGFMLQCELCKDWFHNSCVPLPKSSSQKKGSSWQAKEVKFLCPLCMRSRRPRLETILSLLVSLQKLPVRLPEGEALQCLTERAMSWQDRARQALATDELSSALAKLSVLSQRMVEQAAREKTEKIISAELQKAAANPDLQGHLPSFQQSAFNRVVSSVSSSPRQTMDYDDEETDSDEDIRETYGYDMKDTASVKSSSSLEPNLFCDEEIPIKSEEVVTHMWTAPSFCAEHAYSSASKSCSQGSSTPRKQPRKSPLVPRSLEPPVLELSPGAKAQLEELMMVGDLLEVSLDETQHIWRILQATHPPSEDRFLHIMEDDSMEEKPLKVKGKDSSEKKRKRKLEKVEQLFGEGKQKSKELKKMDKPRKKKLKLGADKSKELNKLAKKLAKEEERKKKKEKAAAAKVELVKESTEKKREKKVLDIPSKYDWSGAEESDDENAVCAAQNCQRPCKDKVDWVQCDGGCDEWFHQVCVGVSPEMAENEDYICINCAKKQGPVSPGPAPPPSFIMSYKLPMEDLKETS

Take `O=C(O)c1ncncc1NCc1ccc(Cl)c(Cl)c1` [Example 3, 5-((3,4-dichlorobenzyl)amino)pyrimidine-4-carboxylic Acid]: the GI50 in assay [1] and in assay [2] was 10 to 100 µM throughout. For the compound `O=C(O)c1ncncc1NCc1cccc(F)c1` [Example 10, 5-((3-fluorobenzyl)amino)pyrimidine-4-carboxylic Acid], the GI50 in the assay with NCI-H1299 cells is less than 10 µM. As to `O=C(O)c1ncncc1NCc1ccc(F)cc1` [Example 6, 5-((4-fluorobenzyl)amino)pyrimidine-4-carboxylic Acid], in assay [1], the GI50 lay within 10 to 100 µM.

Consider `O=C(O)c1ncncc1NCc1cc(C(F)(F)F)cc(C(F)(F)F)c1` [Example 7, 5-((3,5-bis(trifluoromethyl)benzyl)amino)pyrimidine-4-carboxylic Acid], for which, in assay [1], the GI50 is 10 to 100 µM.

Turning to `O=C(O)c1ncncc1NCc1ccc(-c2ccccc2)cc1` [Example 1, 5-(([1,1′-biphenyl]-4-ylmethyl)amino)pyrimidine-4-carboxylic Acid], the inhibition at 10 µM in assay [3] was 40 to 80%. For `CCCn1nc(Nc2cncnc2C(=O)O)c2ccccc21` [Example 12, 5-((1-propyl-1H-indazol-3-yl)amino)pyrimidine-4-carboxylic Acid], the GI50 in assay [1] and in assay [2] was 10 to 100 µM in each case. The IC50 in assay [4] was less than 3 µM. Compound `Cc1ccc(CNc2cncnc2C(=O)O)cc1` [Example 9, 5-((4-methylbenzyl)amino)pyrimidine-4-carboxylic Acid] registered a GI50 in assay [1] of 10 to 100 µM.
